# Results published in patent US20250344693A1, “HERBICIDE SUSPENSION CONCENTRATES AND METHOD FOR THEIR PREPARATION” (NUFARM AUSTRALIA LIMITED, priority 2022, published 2025).
# Assay: Hot solution temperature: homogeneous solution of active with excipient or second active
# Type: physicochemical
# Experimental: Numerous materials may act to form solutions of agrochemicals at elevated temperature. The solubility of MCPA, 2,4-D) and mecoprop with a range of common excipients was assessed at elevated temperature. To establish the melting behaviour of the individual actives, each active (1.25 g) was weighed into a 40 mL vial and heated gradually using a hotplate and Asynt heating insert until full melted, and the melting range was noted. […] To establish hot solvent behaviour, a range of excipients were weighed into 40 mL vials (0.676 g) with each chosen active (1.25 g). The mixtures were then heated gradually until a fully homogeneous solution was observed and the temperature was noted as described above. Additionally, the potential for agrochemicals to act as solvents for a second agrochemical at elevated temperature was also studied by combining the active ingredients in a ratio of 1.85:1 active:active ‘solvent’ following the same procedure as described above. For example, in a mixture where the first active was MCPA (1.25 g) and the second was mecoprop (0.676 g) both actives were added to a 40 mL vial and heated following the procedure detailed above. Where a homogeneous phase is observed below the measured melting point of the study active ingredient, a hot solution is considered to have been formed and the excipient is deemed to act as a solvent at elevated temperature.
# Where the “solvent” is listed as “None”, the temperature stated represents the formation of a homogeneous melt.
smiles,measurement,setting,value
"O=C(O)COc1ccc(Cl)cc1Cl [2,4-D, 2,4-dichlorophenoxyacetic acid]",Solution temp range (° C.),"2nd active Dichloroprop-P as solvent, ratio 1.85:1",130-132 °C
same,Solution temp range (° C.),"2nd active MCPA as solvent, ratio 1.85:1",140-142 °C
same,Solution temp range (° C.),"2nd active Mecoprop as solvent, ratio 1.85:1 active:active solvent",130-131 °C
same,temperature range where homogeneous solutions formed (° C.),"solvent 1,2-Propanediol",110-112 °C
same,temperature range where homogeneous solutions formed (° C.),solvent Altox 4894,121-125 °C
same,temperature range where homogeneous solutions formed (° C.),solvent Altox 4912,138-140 °C
same,temperature range where homogeneous solutions formed (° C.),solvent Altox 4913,116-120 °C
same,temperature range where homogeneous solutions formed (° C.),solvent Atlas G5000,129-131 °C
same,temperature range where homogeneous solutions formed (° C.),solvent Atlox 4915,134-137 °C
same,temperature range where homogeneous solutions formed (° C.),solvent Atlox 4916,140-141 °C
same,temperature range where homogeneous solutions formed (° C.),solvent Atplus 245,123-126 °C
same,temperature range where homogeneous solutions formed (° C.),solvent Atplus PFA,127-130 °C
same,temperature range where homogeneous solutions formed (° C.),solvent Atplus UEP,132-135 °C
same,temperature range where homogeneous solutions formed (° C.),solvent Crodamol AB,136-138 °C
same,temperature range where homogeneous solutions formed (° C.),solvent Crodamol GTCC,138-140 °C
same,temperature range where homogeneous solutions formed (° C.),solvent Dipropylene glycol dimethyl ether,114-116 °C
same,temperature range where homogeneous solutions formed (° C.),solvent Genapol X020,118-121 °C
same,temperature range where homogeneous solutions formed (° C.),solvent Genapol X050,120-123 °C
same,temperature range where homogeneous solutions formed (° C.),solvent Genapol X060,118-122 °C
same,temperature range where homogeneous solutions formed (° C.),solvent Genapol X080,118-121 °C
same,temperature range where homogeneous solutions formed (° C.),"solvent Glycerol, 1.25 g active, 0.676 g excipient",116-118 °C
same,temperature range where homogeneous solutions formed (° C.),solvent Multiwet MO85,140-143 °C
same,temperature range where homogeneous solutions formed (° C.),solvent PEG 400,122-123 °C
same,temperature range where homogeneous solutions formed (° C.),solvent PEG 1000,124-126 °C
same,temperature range where homogeneous solutions formed (° C.),solvent PEG 4000,134-136 °C
same,temperature range where homogeneous solutions formed (° C.),solvent Pluronic F68,137-140 °C
same,temperature range where homogeneous solutions formed (° C.),solvent Pluronic F127,137-140 °C
same,temperature range where homogeneous solutions formed (° C.),solvent Propylene glycol,110-112 °C
same,temperature range where homogeneous solutions formed (° C.),solvent Synperonic PE/L31,129-130 °C
same,temperature range where homogeneous solutions formed (° C.),solvent Synperonic PE/L64,132-135 °C
same,temperature range where homogeneous solutions formed (° C.),solvent Synprolam 35X15,123-126 °C
same,temperature range where homogeneous solutions formed (° C.),solvent Tween 22,120-124 °C
same,temperature range where homogeneous solutions formed (° C.),solvent Tween 23,120-124 °C
same,temperature range where homogeneous solutions formed (° C.),solvent Tween 24,120-124 °C
